Test results published in patent US10421718B2, “EBNA1 inhibitors and their method of use” (priority 2013, dated 2019).
pIC50: −log10 of the molar value.

Molecular target: T1, His-EBNA1 (DNA binding domain of EBNA1, amino acids 459-607) (Epstein-Barr virus, UniProt P03211)
T1 construct: made in house; host or cells: E. coli
Test: Inhibition of 5′-biotin-oPL4624 binding to His-EBNA1 using Alpha Screen technology
Conditions: Alpha Screen Activity (IC50, inhibition of 5′-biotin-oPL4624 binding to His-EBNA1), 15 nM His-EBNA1, 0.2 nM bt-oPL4624, 2 hr room temperature
In short: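 His-tagged EBNA1 DNA-binding domain (aa 459-607, E. coli-expressed) at 15 nM with 0.2 nM biotinylated self-complementary oligo, streptavidin donor and nickel acceptor beads, in 25 mM Tris pH 7.2, 160 mM NaCl, 1 mM MgCl2. Compound 3.2 nM-100 μM final; AlphaScreen read after 2 h at room temperature, one-site dose-response fit.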

T1 sequence (P03211 459-607): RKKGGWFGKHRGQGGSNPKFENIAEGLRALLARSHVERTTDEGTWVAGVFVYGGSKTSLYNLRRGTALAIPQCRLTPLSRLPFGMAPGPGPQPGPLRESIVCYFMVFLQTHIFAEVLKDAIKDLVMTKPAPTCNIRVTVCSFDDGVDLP

SMILES	pIC50
NC(=O)c1cc(C#Cc2cccc(C(=O)O)c2)cc2[nH]ccc12 [Entry 179, 3-(4-carbamoyl-1H-indol-6-ylethynyl)-benzoic acid]	5.00 to 6.00
NC(=O)c1cccc(C#Cc2cccc(C(=O)O)c2)c1 [Entry 180, 3-(3-carbamoyl-phenylethynyl)-benzoic acid]	> 6.00
O=C(O)c1cccc(C#Cc2cn(S(=O)(=O)c3ccccc3)c3ccccc23)c1 [Entry 181, 3-(1-benzenesulfonyl-1H-indol-3-ylethynyl)-benzoic acid]	4.00 to 5.00
O=C(O)c1cccc(C#Cc2c[nH]c3ccccc23)c1 [Entry 182, 3-(1H-indol-3-ylethynyl)-benzoic acid]	4.00 to 5.00
COC(=O)c1cccc(C#Cc2cccc(C(=O)O)c2)c1 [Entry 183, 3-(3-carboxy-phenylethynyl)-benzoic acid methyl ester]	3.00 to 4.00
COc1cc(C#Cc2cccc(C(=O)O)c2)cc(C(N)=O)c1 [Entry 184, 3-(3-carbamoyl-5-methoxy-phenylethynyl)-benzoic acid]	4.00 to 5.00
COc1ccc(-c2c(C#Cc3ccncc3)cccc2C(=O)O)cc1O [Entry 185, 3′-hydroxy-4′-methoxy-6-pyridin-4-ylethynyl-biphenyl-2-carboxylic acid]	3.00 to 4.00
COc1cc(O)cc(-c2c(C#Cc3ccncc3)cccc2C(=O)O)c1 [Entry 186, 5′-hydroxy-3′-methoxy-6-pyridin-4-ylethynyl-biphenyl-2-carboxylic acid]	4.00 to 5.00
O=C(O)c1cccc(C#Cc2ccncc2)c1-c1cc[nH]n1 [Entry 187, 2-(1H-pyrazol-3-yl)-3-pyridin-4-ylethynyl-benzoic acid]	4.00 to 5.00
O=C(O)c1cccc(C#Cc2ccncc2)c1-c1cn[nH]c1 [Entry 188, 2-(1H-pyrazol-4-yl)-3-pyridin-4-ylethynyl-benzoic acid]	3.00 to 4.00
Cc1noc(C)c1-c1c(C#Cc2ccncc2)cccc1C(=O)O [Entry 189, 2-(3,5-dimethyl-isoxazol-4-yl)-3-pyridin-4-ylethynyl-benzoic acid]	4.00 to 5.00
Cc1nn(C)c(C)c1-c1c(C#Cc2ccccc2)cccc1C(=O)O [Entry 190, 3-phenylethynyl-2-(1,3,5-trimethyl-1H-pyrazol-4-yl)-benzoic acid]	3.00 to 4.00
Cc1ccc(C)n1-c1c(C#CC(C)(C)O)cccc1C(=O)O [Entry 191, 2-(2,5-dimethyl-pyrrol-1-yl)-3-(3-hydroxy-3-methyl-but-1-ynyl)-benzoic acid]	4.00 to 5.00
Cc1ccc(C)n1-c1c(C#Cc2ccncc2)cccc1C(=O)O [Entry 192, 2-(2,5-dimethyl-pyrrol-1-yl)-3-pyridin-4-ylethynyl-benzoic acid]	4.00 to 5.00
Cc1ccc(C)n1-c1c(C#Cc2cccc(C(N)=O)c2)cccc1C(=O)O [Entry 193, 3-(3-carbamoyl-phenylethynyl)-2-(2,5-dimethyl-pyrrol-1-yl)-benzoic acid]	5.00 to 6.00
Cc1ccc(C)n1-c1c(C#Cc2cccc(C(=O)O)c2)cccc1C(=O)O [Entry 194, 3-(3-carboxy-phenylethynyl)-2-(2,5-dimethyl-pyrrol-1-yl)-benzoic acid]	> 6.00
Cc1ccc(C)n1-c1c(C#Cc2cccc(CO)c2)cccc1C(=O)O [Entry 195, 2-(2,5-dimethyl-pyrrol-1-yl)-3-(3-hydroxymethyl-phenylethynyl)-benzoic acid]	4.00 to 5.00
Cc1ccc(C)n1-c1c(C#Cc2c[nH]c3ncccc23)cccc1C(=O)O [Entry 196, 2-(2,5-dimethyl-pyrrol-1-yl)-3-(1H-pyrrolo[2,3-b]pyridin-3-ylethynyl)-benzoic acid]	5.00 to 6.00
Cc1ccc(C)n1-c1c(C#CC(O)c2ccccc2)cccc1C(=O)O (centres unmarked) [Entry 197, 2-(2,5-dimethyl-pyrrol-1-yl)-3-(3-hydroxy-3-phenyl-prop-1-ynyl)-benzoic acid]	4.00 to 5.00
CC(=O)Nc1cccc(C#Cc2cccc(C(=O)O)c2-n2c(C)ccc2C)c1 [Entry 198, 3-(3-acetylamino-phenylethynyl)-2-(2,5-dimethyl-pyrrol-1-yl)-benzoic acid]	4.00 to 5.00
Cc1ccc(C)n1-c1c(C#CC2CC2)cccc1C(=O)O [Entry 199, 3-cyclopropylethynyl-2-(2,5-dimethyl-pyrrol-1-yl)-benzoic acid]	5.00 to 6.00
COc1cccc(C#Cc2cccc(C(=O)O)c2-n2c(C)ccc2C)c1 [Entry 200, 2-(2,5-dimethyl-pyrrol-1-yl)-3-(3-methoxy-phenylethynyl)-benzoic acid]	5.00 to 6.00
O=C(O)c1cccc(C#Cc2ccccc2)c1-c1ccc2cn[nH]c2c1 [Entry 201, 2-(1H-indazol-6-yl)-3-phenylethynyl-benzoic acid]	4.00 to 5.00
O=C(O)c1cccc(C#Cc2ccccc2)c1-c1ccc2c(c1)OCO2 [Entry 202, 2-benzo[1,3]dioxol-5-yl-3-phenylethynyl-benzoic acid]	4.00 to 5.00

SMILES	pIC50
O=C(O)c1cccc(C#Cc2ccccc2)c1-c1ccc2cnccc2c1 [Entry 203, 2-isoquinolin-6-yl-3-phenylethynyl-benzoic acid]	4.00 to 5.00
O=C(O)c1cccc(C#Cc2ccccc2)c1-c1cc2ccccc2o1 [Entry 204, 2-benzofuran-2-yl-3-phenylethynyl-benzoic acid]	5.00 to 6.00
O=C(O)c1cccc(C#Cc2ccccc2)c1-c1cccc2cccnc12 [Entry 205, 3-phenylethynyl-2-quinolin-8-yl-benzoic acid]	4.00 to 5.00
Nc1ncc(-c2c(C#Cc3ccccc3)cccc2C(=O)O)cn1 [Entry 206, 2-(2-amino-pyrimidin-5-yl)-3-phenylethynyl-benzoic acid]	3.00 to 4.00
CN(C)Cc1ccc(-c2c(C#Cc3ccccc3)cccc2C(=O)O)cc1 [Entry 207, 4′-dimethylaminomethyl-6-phenylethynyl-biphenyl-2-carboxylic acid]	3.00 to 4.00
Nc1ccc(C#Cc2cccc(C(=O)O)c2-c2ccc3cc[nH]c3c2)cc1 [Entry 208, 3-(4-amino-phenylethynyl)-2-(1H-indol-6-yl)-benzoic acid]	5.00 to 6.00
O=C(O)c1ccc(C#Cc2cccc(C(=O)O)c2-c2ccc3cc[nH]c3c2)cc1 [Entry 209, 3-(4-carboxy-phenylethynyl)-2-(1H-indol-6-yl)-benzoic acid]	> 6.00
COc1ccc(C#Cc2cccc(C(=O)O)c2-c2ccc3cc[nH]c3c2)cc1 [Entry 210, 2-(1H-indol-6-yl)-3-(4-methoxy-phenylethynyl)-benzoic acid]	5.00 to 6.00
NC(=O)c1ccc(C#Cc2cccc(C(=O)O)c2-c2ccc3cc[nH]c3c2)cc1 [Entry 211, 3-(4-carbamoyl-phenylethynyl)-2-(1H-indol-6-yl)-benzoic acid]	5.00 to 6.00
O=C(O)c1cccc(C#Cc2ccc(C(=O)N3CCNCC3)cc2)c1-c1ccc2cc[nH]c2c1 [Entry 212, 2-(1H-indol-6-yl)-3-[4-(piperazine-1-carbonyl)-phenylethynyl]-benzoic acid]	5.00 to 6.00
CC(=O)Nc1ccc(C#Cc2cccc(C(=O)O)c2-c2ccc3cc[nH]c3c2)cc1 [Entry 213, 3-(4-acetylamino-phenylethynyl)-2-(1H-indol-6-yl)-benzoic acid]	4.00 to 5.00
O=C(Nc1ccc(C#Cc2cccc(C(=O)O)c2-c2ccc3cc[nH]c3c2)cc1)c1cccnc1 [Entry 214, 2-(1H-indol-6-yl)-3-{4-[(pyridine-3-carbonyl)-amino]phenylethynyl}-benzoic acid]	> 6.00
CS(=O)(=O)Nc1ccc(C#Cc2cccc(C(=O)O)c2-c2ccc3cc[nH]c3c2)cc1 [Entry 215, 2-(1H-indol-6-yl)-3-(4-methanesulfonylamino-phenylethynyl)-benzoic acid]	5.00 to 6.00
O=C(O)c1cccc(C#Cc2ccc(NS(=O)(=O)c3cccs3)cc2)c1-c1ccc2cc[nH]c2c1 [Entry 216, 2-(1H-indol-6-yl)-3-[4-(thiophene-2-sulfonylamino)-phenylethynyl]-benzoic acid]	5.00 to 6.00
COC(=O)c1c[nH]c2cc(-c3c(C#Cc4cscn4)cccc3C(=O)O)ccc12 [Entry 217, 2-(3-(Methoxycarbonyl)-1H-indol-6-yl)-3-(thiazol-4-ylethynyl)benzoic acid]	5.00 to 6.00
O=C(O)c1cccc(C#Cc2cscn2)c1-c1ccc2cc[nH]c2c1 [Entry 218, 2-(1H-indol-6-yl)-3-(thiazol-4-ylethynyl)benzoic acid]	4.00 to 5.00
Cn1cc(-c2c(C#Cc3cscn3)cccc2C(=O)O)cn1 [Entry 219, 2-(1-methyl-1H-pyrazol-4-yl)-3-(thiazol-4-ylethynyl)benzoic acid]	4.00 to 5.00
Cn1cc(-c2c(C#Cc3cccc(O)c3)cccc2C(=O)O)cn1 [Entry 220, 3-((3-hydroxyphenyl)ethynyl)-2-(1-methyl-1H-pyrazol-4-yl)benzoic acid]	5.00 to 6.00
O=C(O)c1cccc(C#Cc2cccc(O)c2)c1-c1ccc2c(Cl)c[nH]c2c1 [Entry 221, 2-(3-chloro-1H-indol-6-yl)-3-((3-hydroxyphenyl)ethynyl)benzoic acid]	5.00 to 6.00
O=C(O)c1cccc(C#Cc2cccc(O)c2)c1-c1ccc2cn[nH]c2c1 [Entry 222, 3-((3-hydroxyphenyl)ethynyl)-2-(1H-indazol-6-yl)benzoic acid]	5.00 to 6.00
CC(=O)NCCc1c[nH]c2cc(-c3c(C#Cc4cccc(O)c4)cccc3C(=O)O)ccc12 [Entry 223, 2-(3-(2-acetamidoethyl)-1H-indol-6-yl)-3-((3-hydroxyphenyl)ethynyl)benzoic acid]	5.00 to 6.00
CN(C)S(=O)(=O)c1cccc(C#Cc2cccc(C(=O)O)c2F)c1 [Entry 224]	4.00 to 5.00
O=C(O)c1cccc(C#Cc2ccc(OC3CCOCC3)cc2)c1-c1ccc2cc[nH]c2c1 [Entry 225, 2-(1H-indol-6-yl)-3-((4-(tetrahydro-2H-pyran-4-yloxy)phenyl)ethynyl)benzoic acid]	> 6.00
